Data published in US20250163104A1, “MACROCYCLIC IMMUNOMODULATORS” (priority 2021, published 2025).
pIC50: −log10 of the molar value. Where a SMILES comes first, the peptide text is derived from it. Bridges are numbered along the chain shown (N, C = ends). [ ]: non-standard residue; d: D form. The star is where a group is joined. Phe(4-CONH2) = NC(=O)c1ccc(C[C@H](N)C(=O)O)cc1; Phe(4-COOH) = N[C@@H](Cc1ccc(C(=O)O)cc1)C(=O)O; Bip = N[C@@H](Cc1ccc(-c2ccccc2)cc1)C(=O)O; Phe(3-Me) = Cc1cccc(C[C@H](N)C(=O)O)c1; Val(3-OH) = CC(C)(O)[C@H](N)C(=O)O; 4Pal = N[C@@H](Cc1ccncc1)C(=O)O; Cha = N[C@@H](CC1CCCCC1)C(=O)O; Cit = NC(=O)NCCC[C@H](N)C(=O)O; Hpra = C#CCC[C@H](N)C(=O)O; dNle = CCCC[C@@H](N)C(=O)O; Carboxymethyl = O=C(O)C*; Orn = NCCC[C@H](N)C(=O)O; Dab = NCC[C@H](N)C(=O)O; Dap = NC[C@H](N)C(=O)O; Propargyl = C#CC*

Molecular target: T1, human PD-1 / PD-L1-Ig binding on Jurkat cell line over-expressing human PD-1 (Jurkat-PD-1) (Homo sapiens, UniProt Q15116)
T1 construct: expressed in transfected cells; host or cells: Jurkat
T1 sequence (Q15116 25-288): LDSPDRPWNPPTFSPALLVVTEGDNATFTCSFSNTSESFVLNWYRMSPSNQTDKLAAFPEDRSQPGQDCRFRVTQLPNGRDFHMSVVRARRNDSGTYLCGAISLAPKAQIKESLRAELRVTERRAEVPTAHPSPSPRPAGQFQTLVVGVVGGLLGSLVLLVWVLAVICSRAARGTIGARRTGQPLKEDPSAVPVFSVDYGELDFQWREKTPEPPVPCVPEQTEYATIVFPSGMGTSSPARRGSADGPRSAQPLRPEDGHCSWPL
Experiment: Jurkat-PD-1 Cell Binding High-Content Screening Assay (CBA)
Type: cell-based
Details: Jurkat HPD1_PDL1 IC50, Jurkat-PD-1 cells, PE-labeled PD-L1-Ig 20 nM final
Method in brief: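 Binding of fluorescent PD-L1-Ig (phycoerythrin linked via the Ig tag, 20 nM final) to PD-1-overexpressing Jurkat cells was imaged after a 2 h, 37° C compound pretreatment and 1 hour ligand incubation.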

| SMILES | pIC50 |
| --- | --- |
| CC(C)C[C@H]1NC(=O)[C@H](CCCN)NC(=O)[C@H](CCCNC(N)=O)NC(=O)[C@H](Cc2ccc(-c3ccccc3)cc2)NC(=O)[C@H](C(C)C)NC(=O)[C@H](Cc2c[nH]c3ccccc23)NC(=O)[C@H](CC(=O)O)NC(=O)[C@H](Cc2ccc(OCC(=O)O)cc2)NC(=O)[C@H](Cc2ccc(OCC(=O)O)cc2)NC(=O)CSC[C@@H](C(=O)N[C@@H](C)C(N)=O)NC(=O)[C@H]([C@@H](C)O)NC(=O)[C@H](C(C)C)NC(=O)[C@H](CC2CCCCC2)NC(=O)[C@H](Cc2c[nH]cn2)NC1=O [Compound 1594] | 7.71 |

Same assay, conditions: Jurkat-PD-1 cells, PE-labeled PD-L1-Ig 20 nM final; read-out: Jurkat HPD1_PDL1 IC50

| pIC50 | SMILES |
| --- | --- |
| 7.07 | Cc1cccc(C[C@@H]2NC(=O)[C@H](CC(=O)O)NC(=O)[C@H](Cc3ccc(OCC(=O)O)cc3)NC(=O)[C@H]([C@@H](C)O)NC(=O)CSC[C@@H](C(N)=O)NC(=O)[C@H](CCC(=O)O)NC(=O)[C@H](C(C)C)NC(=O)[C@H](CC3CCCCC3)NC(=O)[C@H](CCN)NC(=O)[C@@H](CC(C)C)NC(=O)[C@H](CCCN)NC(=O)[C@H](Cc3ccc(OCC(=O)O)cc3)NC(=O)[C@H](Cc3ccc(-c4ccccc4)cc3)NC(=O)[C@H](Cc3ccc(OCC(=O)O)cc3)NC2=O)c1 [Compound 1801] ({CH2CO}-TY(Carboxymethyl)D[Phe(3-Me)]Y(Carboxymethyl)[Bip]Y(Carboxymethyl)[Orn][dL][Dab][Cha]VEC-NH2; thioether N-14) |
| 8.14 | Cc1cccc(C[C@@H]2NC(=O)[C@H](CC(=O)O)NC(=O)[C@H](Cc3ccc(OCC(=O)O)cc3)NC(=O)[C@H](Cc3ccc(C(N)=O)cc3)NC(=O)CSC[C@@H](C(=O)N[C@@H](CCN)C(N)=O)NC(=O)[C@H](CCC(N)=O)NC(=O)[C@H](C(C)(C)O)NC(=O)[C@H](CC3CCCCC3)NC(=O)[C@H](CCN)NC(=O)[C@@H](CC(C)C)NC(=O)[C@H](CCCN)NC(=O)[C@H](Cc3ccc(OCC(=O)O)cc3)NC(=O)[C@H](Cc3ccc(-c4ccccc4)cc3)NC(=O)[C@H](Cc3ccc(OCC(=O)O)cc3)NC2=O)c1 [Compound 2069] ({CH2CO}-[Phe(4-CONH2)]Y(Carboxymethyl)D[Phe(3-Me)]Y(Carboxymethyl)[Bip]Y(Carboxymethyl)[Orn][dL][Dab][Cha][Val(3-OH)]QC[Dab]-NH2; thioether N-14) |
| 8.49 | C#CCOc1ccc(C[C@@H]2NC(=O)[C@H](Cc3cccc(C)c3)NC(=O)[C@H](CC(=O)O)NC(=O)[C@H](Cc3ccc(OCC(=O)O)cc3)NC(=O)[C@H](CN)NC(=O)CSC[C@@H](C(=O)N[C@@H](CCN)C(N)=O)NC(=O)[C@H](CCC(=O)O)NC(=O)[C@H](C(C)C)NC(=O)[C@H](CC3CCCCC3)NC(=O)[C@H](CCN)NC(=O)[C@@H](CC(C)C)NC(=O)[C@H](CCCN)NC(=O)[C@H](Cc3ccc(OCC(=O)O)cc3)NC(=O)[C@H](Cc3ccc(-c4ccccc4)cc3)NC2=O)cc1 [Compound 1812] ({CH2CO}-[Dap]Y(Carboxymethyl)D[Phe(3-Me)]Y(Propargyl)[Bip]Y(Carboxymethyl)[Orn][dL][Dab][Cha]VEC[Dab]-NH2; thioether N-14) |
| 7.74 | Cc1cccc(C[C@@H]2NC(=O)[C@H](CC(=O)O)NC(=O)[C@H](Cc3ccc(C(=O)O)cc3)NC(=O)[C@H](Cc3ccncc3)NC(=O)CSC[C@@H](C(=O)N[C@@H](CCN)C(N)=O)NC(=O)[C@H]([C@@H](C)O)NC(=O)[C@H](C(C)C)NC(=O)[C@H](CC3CCCCC3)NC(=O)[C@H](CCN)NC(=O)[C@@H](CC(C)C)NC(=O)[C@H](CCCN)NC(=O)[C@H](Cc3ccc(O)cc3)NC(=O)[C@H](Cc3ccc(-c4ccccc4)cc3)NC(=O)[C@H](C(C)C)NC2=O)c1 [Compound 2292] ({CH2CO}-[4Pal][Phe(4-COOH)]D[Phe(3-Me)]V[Bip]Y[Orn][dL][Dab][Cha]VTC[Dab]-NH2; thioether N-14) |
| 8.09 | Cc1cccc(C[C@@H]2NC(=O)[C@H](CC(=O)O)NC(=O)[C@H](Cc3ccc(OCC(=O)O)cc3)NC(=O)[C@H](Cc3ccncc3)NC(=O)CSC[C@@H](C(=O)N[C@@H](CCN)C(N)=O)NC(=O)[C@H](CCC(N)=O)NC(=O)[C@H](C(C)(C)O)NC(=O)[C@H](CC3CCCCC3)NC(=O)[C@H](CCN)NC(=O)[C@@H](CC(C)C)NC(=O)[C@H](CCCN)NC(=O)[C@H](Cc3ccc(OCC(=O)O)cc3)NC(=O)[C@H](Cc3ccc(-c4ccccc4)cc3)NC(=O)[C@H](Cc3ccc(OCC(=O)O)cc3)NC2=O)c1 [Compound 2068] ({CH2CO}-[4Pal]Y(Carboxymethyl)D[Phe(3-Me)]Y(Carboxymethyl)[Bip]Y(Carboxymethyl)[Orn][dL][Dab][Cha][Val(3-OH)]QC[Dab]-NH2; thioether N-14) |

The remaining lines, values behind:

| SMILES | pIC50 |
| --- | --- |
| CC(C)C[C@H]1NC(=O)[C@H](CCCN)NC(=O)[C@H](C(C)C)NC(=O)[C@H](Cc2ccc(-c3ccccc3)cc2)NC(=O)[C@H](C(C)C)NC(=O)[C@H](Cc2ccc(O)cc2)NC(=O)[C@H](CC(=O)O)NC(=O)[C@H](Cc2ccc(OCC(=O)O)cc2)NC(=O)[C@H](CN)NC(=O)CSC[C@@H](C(=O)N[C@@H](CCN)C(N)=O)NC(=O)[C@H](CCCCN)NC(=O)[C@H](C(C)C)NC(=O)[C@H](CC2CCCCC2)NC(=O)[C@H](CCN)NC1=O [Compound 2033] ({CH2CO}-[Dap]Y(Carboxymethyl)DYV[Bip]V[Orn][dL][Dab][Cha]VKC[Dab]-NH2; thioether N-14) | 7.74 |
| CC(C)C[C@H]1NC(=O)[C@H](CCCN)NC(=O)[C@H](CCCN)NC(=O)[C@H](Cc2ccc(-c3ccccc3)cc2)NC(=O)[C@H](C(C)C)NC(=O)[C@H](Cc2c[nH]c3ccccc23)NC(=O)[C@H](CC(=O)O)NC(=O)[C@H](Cc2ccc(OCC(=O)O)cc2)NC(=O)[C@H](CN)NC(=O)CSC[C@@H](C(=O)N[C@@H](C)C(N)=O)NC(=O)[C@H]([C@@H](C)O)NC(=O)[C@H](C(C)C)NC(=O)[C@H](CC2CCCCC2)NC(=O)[C@H](CCN)NC1=O [Compound 1374] | 8.01 |
| CC(C)C[C@H]1NC(=O)[C@H](CCCN)NC(=O)[C@H](CCCNC(N)=O)NC(=O)[C@H](Cc2ccc(-c3ccccc3)cc2)NC(=O)[C@H](C(C)C)NC(=O)[C@H](Cc2c[nH]c3ccccc23)NC(=O)[C@H](CC(=O)O)NC(=O)[C@H](Cc2ccc(OCC(=O)O)cc2)NC(=O)[C@H](CN)NC(=O)CSC[C@@H](C(=O)N[C@@H](C)C(N)=O)NC(=O)[C@H]([C@@H](C)O)NC(=O)[C@H](C(C)C)NC(=O)[C@H](CC2CCCCC2)NC(=O)[C@H](CCN)NC1=O [Compound 1308] ({CH2CO}-[Dap]Y(Carboxymethyl)DWV[Bip][Cit][Orn][dL][Dab][Cha]VTCA-NH2; thioether N-14) | 7.90 |
| CC(C)C[C@@H]1NC(=O)[C@H](CCCCN)NC(=O)[C@@H](CC(C)C)NC(=O)[C@H](CCN)NC(=O)[C@H](Cc2cnc[nH]2)NC(=O)[C@H](Cc2ccc(-c3ccccc3)cc2)NC(=O)[C@H](C(C)C)NC(=O)[C@H](Cc2c[nH]c3ccccc23)NC(=O)[C@H](CC(=O)O)NC(=O)[C@H](Cc2ccc(O)cc2)NC(=O)[C@H](CC(N)=O)NC(=O)CSC[C@@H](C(=O)NCC(N)=O)NC(=O)[C@H](CO)NC(=O)[C@H](C(C)C)NC1=O [Compound 1139] ({CH2CO}-NYDWV[Bip]H[Dab][dL]KLVSCG-NH2; thioether N-14) | 7.35 |
| CC(C)C[C@@H]1NC(=O)[C@H](Cc2c[nH]c3ccccc23)NC(=O)[C@H](CC(=O)O)NC(=O)[C@H](Cc2ccc(O)cc2)NC(=O)[C@H](Cc2ccccc2)NC(=O)CSC[C@@H](C(=O)N[C@@H](C)C(N)=O)NC(=O)[C@H]([C@@H](C)O)NC(=O)[C@H](C(C)C)NC(=O)[C@H](CC(C)C)NC(=O)[C@H](CC(N)=O)NC(=O)[C@@H](CC(C)C)NC(=O)[C@H](CCCN)NC(=O)[C@H](C(C)C)NC(=O)[C@H](Cc2ccc(-c3ccccc3)cc2)NC1=O [Compound 1066] ({CH2CO}-FYDWL[Bip]V[Orn][dL]NLVTCA-NH2; thioether N-14) | 7.37 |
| CC(C)C[C@H]1NC(=O)[C@H](CCCN)NC(=O)[C@H](C(C)C)NC(=O)[C@H](Cc2ccc(-c3ccccc3)cc2)NC(=O)[C@H](C(C)C)NC(=O)[C@H](Cc2c[nH]c3ccccc23)NC(=O)[C@H](CC(=O)O)NC(=O)[C@H](Cc2ccc(OCC(=O)O)cc2)NC(=O)[C@H](CN)NC(=O)CSC[C@@H](C(=O)N[C@@H](C)C(N)=O)NC(=O)[C@H](CN)NC(=O)[C@H](C(C)C)NC(=O)[C@H](CC2CCCCC2)NC(=O)[C@H](CCN)NC1=O [Compound 1738] ({CH2CO}-[Dap]Y(Carboxymethyl)DWV[Bip]V[Orn][dL][Dab][Cha]V[Dap]CA-NH2; thioether N-14) | 8.08 |
| C#CCC[C@@H]1NC(=O)[C@H](CC2CCCCC2)NC(=O)[C@H](CCN)NC(=O)[C@@H](CC(C)C)NC(=O)[C@H](CCCN)NC(=O)[C@H](C(C)C)NC(=O)[C@H](Cc2ccc(-c3ccccc3)cc2)NC(=O)[C@H](C(C)C)NC(=O)[C@H](Cc2cccc(C)c2)NC(=O)[C@H](CC(=O)O)NC(=O)[C@H](Cc2ccc(OCC(=O)O)cc2)NC(=O)[C@H](CN)NC(=O)CSC[C@@H](C(N)=O)NC(=O)[C@H]([C@@H](C)O)NC1=O [Compound 2012] ({CH2CO}-[Dap]Y(Carboxymethyl)D[Phe(3-Me)]V[Bip]V[Orn][dL][Dab][Cha][Hpra]TC-NH2; thioether N-14) | 7.80 |
| CCCC[C@H]1NC(=O)[C@H](CCCN)NC(=O)[C@H](CCC(=O)O)NC(=O)[C@H](Cc2ccc(-c3ccccc3)cc2)NC(=O)[C@H](C(C)C)NC(=O)[C@H](Cc2c[nH]c3ccccc23)NC(=O)[C@H](CC(=O)O)NC(=O)[C@H](Cc2ccncc2)NC(=O)[C@H](CN)NC(=O)CSC[C@@H](C(=O)N[C@@H](C)C(N)=O)NC(=O)[C@H]([C@@H](C)O)NC(=O)[C@H](C(C)C)NC(=O)[C@H](CC2CCCCC2)NC(=O)[C@H](CCN)NC1=O [Compound 1452] ({CH2CO}-[Dap][4Pal]DWV[Bip]E[Orn][dNle][Dab][Cha]VTCA-NH2; thioether N-14) | 7.60 |
| CCC(C)[C@@H]1NC(=O)[C@H](Cc2ccc(-c3ccccc3)cc2)NC(=O)[C@H](C(C)C)NC(=O)[C@H](Cc2c[nH]c3ccccc23)NC(=O)[C@H](CC(=O)O)NC(=O)[C@H](Cc2ccc(OCC(=O)O)cc2)NC(=O)[C@H](Cc2cc[nH]c2)NC(=O)CSC[C@@H](C(=O)N[C@H](C)C(N)=O)NC(=O)[C@H](C(C)O)NC(=O)[C@H](C(C)(C)O)NC(=O)[C@H](CC2CCCCC2)NC(=O)[C@H](CCN)NC(=O)[C@@H](CC(C)C)NC(=O)[C@H](CCCN)NC1=O (stereo partly drawn) [Compound 2662] | 8.08 |
